Results taken from publication PMC8194506 (Antiviral research, 2020).
Like-named read-outs stand apart in the source and are kept apart here.

Tests used:
EBOV [1] = conditions: cited from earlier work
[2] = human, microsomes
in vitro [3] = conditions: guinea pig, microsomes
[4] = mouse, microsomes
[5] = guinea pig, microsomes
in vitro [6] = conditions: mouse, microsomes
[7] = microsomes
in vitro [8] = conditions: human, microsomes
EBOV [9] = conditions: mouse, in vivo; cited from earlier work
Sudan virus = conditions: guinea pig, in vivo, sc; cited from earlier work
[10] = male, Hartley, guinea pig, in vivo
in vitro [11] = conditions: human
[12] = human, in vivo; cited from earlier work
MARV (Musoke and Angola) = experiment: organism not typed; assay type: cell-based, Marburg virus; conditions: HeLa, read-out: IC50 range against two strains of MARV
[13] = test system: Marburg virus/H.sapiens-tc/KEN/1980/Mt. Elgon-Musoke (MARV/Mus); experiment: organism not typed; assay type: cell-based; conditions: HeLa
[14] = test system: EBOV (Kikwit, Mayinga and Makona); experiment: microbe, parasite or virus in culture; assay type: cell-based, Ebola virus; conditions: Zaire ebolavirus, HeLa, read-out: IC50 range against three strains of EBOV
[15] = both, Hartley, guinea pig, in vivo
[16] = test system: Marburg virus/H.sapiens-tc/AGO/2005/Ang-1379v (MARV/Ang); experiment: organism not typed; assay type: cell-based; conditions: HeLa
[17] = test system: VSV pseudotyped with EBOV glycoprotein; assay type: cell-based
in vivo = conditions: male, Hartley, guinea pig, ip, 125 mg/kg
MARV Musoke strain = assay type: cell-based, Marburg virus
[18] = pH 7.4
EBOV [19] = conditions: human, in vivo; cited from earlier work
EBOV [20] = conditions: in vivo, iv; cited from earlier work

| Molecule | activity in the guinea pig in vivo model (EBOV [1]) | Clint [2] [µL·min/mg] | half-life (in vitro [3]) [h] | Clint [4] [µL·min/mg] | Clint [5] [µL·min/mg] | half-life (in vitro [6]) [h] | Clint [7] [µL·min/mg] | half-life (in vitro [8]) [h] | further results |
| --- | --- | --- | --- | --- | --- | --- | --- | --- | --- |
| 17-DMAG | inactive |  |  |  |  |  |  |  |  |
| Nc1nc(Nc2ccc3c(c2)CC[C@@H](N2CCCC2)CC3)nn1-c1cc2c(nn1)-c1ccccc1CCC2 [BGB324] | inactive |  |  |  |  |  |  |  |  |
| CCN(CC)CCCC(C)Nc1ccnc2cc(Cl)ccc12 (centres unmarked) [Chloroquine] | inactive | 6.9 | 2.21 | 29.3 | 10.5 | 0.788 | 13.0 | 3.36 |  |
| NC(=O)c1nc(F)c[nH]c1=O [Favipiravir] |  |  |  |  |  |  |  |  | protection (EBOV [9]): 83%; survival rates (Sudan virus): 83–100% |
| COc1ccc2nc3cc(Cl)ccc3c(Nc3cc(CN4CCCC4)c(O)c(CN4CCCC4)c3)c2n1 [Pyronaridine, 4-[(7-Chloro-2-methoxybenzo[b][1,5]naphthyridin-10-yl)amino]-2,6-bis(1-pyrrolidinylmethyl)phenol phosphate (1:4)] |  | 11.4 | 1.1 | <7.4 | 21.0 | > 3.1 | 15.5 | 2.04 | Guinea pigs found dead on days 14 and 17 post dose [10]: 2 of 3; T1/2 ([10]; po, 600 mg/kg): 90.5 h; CC50 (in vitro [11]): 4110 ± 500 nM; t1/2 [12]: 195 to 251 h; IC50 (MARV (Musoke and Angola)): 1010 to 2720 nM; IC50 [13]: 1010 ± 110 nM; IC50 [14]: 820 to 1300 nM; guinea pigs found dead within 30 mins post injection [15]: 4 of 6; guinea pigs having any abnormal clinical observations [15]: 1 of 6; IC50 [16]: 2720 ± 970 nM; Effect on entry stage of infection in pseudotype assay [17]: block the entry stage of infection; AUC(0-inf) (in vivo): 17400 ng·h/mL; AUC(0-t) (in vivo): 16600 ng·h/mL; Cmax (in vivo): 523 ng/mL; half-life (in vivo; T1/2): 72.7 h; Activity against MARV Musoke strain (MARV Musoke strain): active |
| CCN(CC)CCCC(C)Nc1c2ccc(Cl)cc2nc2ccc(OC)cc12 (centres unmarked) [Quinacrine] |  | 50.5 | 0.285 | 110.0 | 81.3 | 0.21 | 137.4 | 0.458 | CC50 (in vitro [11]): 8620 ± 20 nM; O-demethylation, higher in guinea pig [18]: 2–3 times; IC50 [13]: 1570 ± 170 nM; IC50 [16]: 2940 ± 760 nM; Effect on entry stage of infection in pseudotype assay [17]: block the entry stage of infection; Activity against MARV Musoke strain (MARV Musoke strain): active |
| CCN(CC)CCOc1ccc2c(c1)C(=O)c1cc(OCCN(CC)CC)ccc1-2 [Tilorone] |  | 10.9 | 0.203 | 13.5 | 113.7 | 1.71 | 14.7 | 2.12 | CC50 (in vitro [11]): 18000 ± 3040 nM; IC50 [13]: 2050 ± 280 nM; IC50 [16]: 4510 ± 1930 nM; Effect on entry stage of infection in pseudotype assay [17]: block the entry stage of infection; Activity against MARV Musoke strain (MARV Musoke strain): active |
| CCCCc1oc2ccccc2c1C(=O)c1cc(I)c(OCCN(CC)CC)c(I)c1 [amiodarone] | inactive |  |  |  |  |  |  |  |  |
| CC[C@H]1OC(=O)[C@H](C)[C@@H](O[C@H]2C[C@@](C)(OC)[C@@H](O)[C@H](C)O2)[C@H](C)[C@@H](O[C@@H]2O[C@H](C)C[C@H](N(C)C)[C@H]2O)[C@](C)(O)C[C@@H](C)CN(C)[C@H](C)[C@@H](O)[C@]1(C)O [azithromycin] | inactive |  |  |  |  |  |  |  |  |
| CCC(CC)COC(=O)[C@H](C)N[P@](=O)(OC[C@H]1O[C@@](C#N)(c2ccc3c(N)ncnn23)[C@H](O)[C@@H]1O)Oc1ccccc1 [remdesivir] |  |  |  |  |  |  |  |  | overall survival rate (EBOV [19]): 47%; survival (EBOV [20]): 100% |
| mAb114: a monoclonal antibody (antibody, chains of the INN, looked up, V domains shown) VH: EVQLVESGGGLIQPGGSLRLSCAASGFALRMYDMHWVRQTIDKRLEWVSAVGPSGDTTYADSVKGRFAVSRENAKNSLSLQMNSLTAGDTAIYYCVRSDRGVAGLFDSWGQGILVTVSS VL: DIQMTQSPSSLSASVGDRITITCRASQAFDNYVAWYQQRPGKVPKLLISAASALHAGVPSRFSGSGSGTHFTLTISSLQPEDVATYYCQNYNSAPLTFGGGTKVEIK |  |  |  |  |  |  |  |  | overall survival rate (EBOV [19]): 66% |
